Measurements: ChEMBL document CHEMBL3217491, “Design, synthesis and biological evaluation of imidazopyridine/pyrimidine-chalcone derivatives as potential anticancer agents” (2010)
Active and inactive are the calls of the source. The rule behind the calls is not given here.

Legend:
PC-3 = assay: Growth inhibition of human PC3 cells after 48 hrs by SRB assay; assay type: functional; details: PC-3, 48 h
DU-145 = assay: Growth inhibition of human DU145 cells after 48 hrs by SRB assay; assay type: functional; details: DU-145, 48 h
MCF7 [1] = assay: Growth inhibition of human MCF7 cells after 48 hrs by SRB assay; assay type: functional; details: MCF7, 48 h
MDA-MB-231 = assay: Growth inhibition of human MDA-MB-231 cells after 48 hrs by SRB assay; assay type: functional; details: MDA-MB-231, 48 h
[2] = Growth inhibition of human Hs578T cells after 48 hrs by SRB assay; assay type: functional; details: Hs-578T
[3] = Growth inhibition of human BT549 cells after 48 hrs by SRB assay; assay type: functional; details: BT-549, 48 h
T47D = assay: Growth inhibition of human T47D cells after 48 hrs by SRB assay; assay type: functional
MDA-MB-468 = assay: Growth inhibition of human MDA-MB-468 cells after 48 hrs by SRB assay; assay type: functional; details: MDA-MB-468, 48 h
[4] = Growth inhibition of human LOXIMVI cells after 48 hrs by SRB assay; assay type: functional; details: LOX IMVI
Malme-3M = assay: Growth inhibition of human MALME-3M cells after 48 hrs by SRB assay; assay type: functional
M14 = assay: Growth inhibition of human M14 cells after 48 hrs by SRB assay; assay type: functional; details: M14, 48 h
MDA-MB-435 = assay: Growth inhibition of human MDA-MB-435 cells after 48 hrs by SRB assay; assay type: functional; details: MDA-MB-435, 48 h
SK-MEL-2 = assay: Growth inhibition of human SK-MEL-2 cells after 48 hrs by SRB assay; assay type: functional; details: SK-MEL-2, 48 h
SK-MEL-28 = assay: Growth inhibition of human SK-MEL-28 cells after 48 hrs by SRB assay; assay type: functional; details: SK-MEL-28, 48 h
SK-MEL-5 = assay: Growth inhibition of human SK-MEL-5 cells after 48 hrs by SRB assay; assay type: functional; details: SK-MEL-5, 48 h
[5] = Growth inhibition of human UACC62 cells after 48 hrs by SRB assay; assay type: functional; details: UACC-62, 48 h
[6] = Growth inhibition of human UACC257 cells after 48 hrs by SRB assay; assay type: functional; details: UACC-257, 48 h
MCF7 [7] = assay: Growth inhibition of human MCF7 cells assessed as cell viability at 4 uM after 24 hrs by MTT assay; assay type: functional, cell-based
MCF7 [8] = assay: Cell cycle arrest in human MCF7 cells assessed as accumulation at G0/G1 phase at 4 uM after 24 hrs by propidium iodide staining-based flow cytometry (reference value: 64.04%); assay type: functional
MCF7 [9] = assay: Cell cycle arrest in human MCF7 cells assessed as accumulation at S phase at 4 uM after 24 hrs by propidium iodide staining-based flow cytometry (reference value: 20.17%); assay type: functional
MCF7 [10] = assay: Cell cycle arrest in human MCF7 cells assessed as accumulation at G2/M phase at 4 uM after 24 hrs by propidium iodide staining-based flow cytometry (reference value: 15.79%); assay type: functional
CCRF-CEM = assay: Growth inhibition of human CCRF-CEM cells after 48 hrs by SRB assay; assay type: functional
HL-60(TB) = assay: Growth inhibition of human HL-60(TB) cells after 48 hrs by SRB assay; assay type: functional; details: HL-60, 48 h
K562 = assay: Growth inhibition of human K562 cells after 48 hrs by SRB assay; assay type: functional; details: K562, 48 h
[11] = Growth inhibition of human MOLT4 cells after 48 hrs by SRB assay; assay type: functional; details: MOLT-4, 48 h
SR = assay: Growth inhibition of human SR cells after 48 hrs by SRB assay; assay type: functional
RPMI-8226 = assay: Growth inhibition of human RPMI8226 cells after 48 hrs by SRB assay; assay type: functional; details: RPMI-8226, 48 h
A549 = assay: Growth inhibition of human A549 cells after 48 hrs by SRB assay; assay type: functional; details: A549, 48 h
[12] = Growth inhibition of human EKVX cells after 48 hrs by SRB assay; assay type: functional
HOP-62 = assay: Growth inhibition of human HOP62 cells after 48 hrs by SRB assay; assay type: functional; details: HOP-62, 48 h
[13] = Growth inhibition of human HOP92 cells after 48 hrs by SRB assay; assay type: functional; details: HOP-92, 48 h
NCI-H226 = assay: Growth inhibition of human NCI-H226 cells after 48 hrs by SRB assay; assay type: functional; details: NCI-H226, 48 h
NCI-H23 = assay: Growth inhibition of human NCI-H23 cells after 48 hrs by SRB assay; assay type: functional; details: NCI-H23, 48 h
NCI-H322M = assay: Growth inhibition of human NCI-H322M cells after 48 hrs by SRB assay; assay type: functional
NCI-H460 = assay: Growth inhibition of human NCI-H460 cells after 48 hrs by SRB assay; assay type: functional; details: NCI-H460, 48 h
NCI-H522 = assay: Growth inhibition of human NCI-H522 cells after 48 hrs by SRB assay; assay type: functional; details: NCI-H522, 48 h
COLO 205 = assay: Growth inhibition of human COLO205 cells after 48 hrs by SRB assay; assay type: functional; details: COLO 205, 48 h
[14] = Growth inhibition of human HCC2998 cells after 48 hrs by SRB assay; assay type: functional; details: HCC 2998, 48 h
HCT-116 = assay: Growth inhibition of human HCT116 cells after 48 hrs by SRB assay; assay type: functional; details: HCT-116, 48 h
[15] = Growth inhibition of human HCT15 cells after 48 hrs by SRB assay; assay type: functional; details: HCT-15, 48 h
HT-29 = assay: Growth inhibition of human HT-29 cells after 48 hrs by SRB assay; assay type: functional; details: HT-29, 48 h
KM12 = assay: Growth inhibition of human KM12 cells after 48 hrs by SRB assay; assay type: functional; details: KM12, 48 h
SW-620 = assay: Growth inhibition of human SW620 cells after 48 hrs by SRB assay; assay type: functional; details: SW-620, 48 h
SF-268 = assay: Growth inhibition of human SF268 cells after 48 hrs by SRB assay; assay type: functional; details: SF-268, 48 h
[16] = Growth inhibition of human SF295 cells after 48 hrs by SRB assay; assay type: functional; details: SF-295, 48 h
[17] = Growth inhibition of human SF539 cells after 48 hrs by SRB assay; assay type: functional; details: SF-539, 48 h
SNB-19 = assay: Growth inhibition of human SNB19 cells after 48 hrs by SRB assay; assay type: functional; details: SNB-19, 48 h
SNB-75 = assay: Growth inhibition of human SNB75 cells after 48 hrs by SRB assay; assay type: functional; details: SNB-75, 48 h
U-251 = assay: Growth inhibition of human U251 cells after 48 hrs by SRB assay; assay type: functional; details: U-251, 48 h
IGROV-1 = assay: Growth inhibition of human IGROV1 cells after 48 hrs by SRB assay; assay type: functional; details: IGROV-1, 48 h
[18] = Growth inhibition of human OVCAR3 cells after 48 hrs by SRB assay; assay type: functional; details: OVCAR-3, 48 h
[19] = Growth inhibition of human OVCAR4 cells after 48 hrs by SRB assay; assay type: functional; details: OVCAR-4, 48 h
[20] = Growth inhibition of human OVCAR5 cells after 48 hrs by SRB assay; assay type: functional; details: OVCAR-5, 48 h
[21] = Growth inhibition of human OVCAR8 cells after 48 hrs by SRB assay; assay type: functional; details: OVCAR-8, 48 h
[22] = Growth inhibition of human NCI-ADR-RES cells after 48 hrs by SRB assay; assay type: functional
SK-OV-3 = assay: Growth inhibition of human SKOV3 cells after 48 hrs by SRB assay; assay type: functional; details: SK-OV-3, 48 h
786-0 = assay: Growth inhibition of human 786-0 cells after 48 hrs by SRB assay; assay type: functional; details: 786-0, 48 h
A498 = assay: Growth inhibition of human A498 cells after 48 hrs by SRB assay; assay type: functional; details: A498, 48 h
ACHN = assay: Growth inhibition of human ACHN cells after 48 hrs by SRB assay; assay type: functional
CAKI-1 = assay: Growth inhibition of human Caki1 cells after 48 hrs by SRB assay; assay type: functional; details: CAKI-1, 48 h
[23] = Growth inhibition of human RXF393 cells after 48 hrs by SRB assay; assay type: functional; details: RXF 393, 48 h
SN12C = assay: Growth inhibition of human SN12C cells after 48 hrs by SRB assay; assay type: functional
TK-10 = assay: Growth inhibition of human TK10 cells after 48 hrs by SRB assay; assay type: functional; details: TK-10, 48 h
[24] = Growth inhibition of human UO31 cells after 48 hrs by SRB assay; assay type: functional; details: UO-31, 48 h

Q: What does the source list for COc1ccc(-c2nc3ccccn3c2/C=C/C(=O)c2cc(OC)c(OC)c(OC)c2)cc1?
A: GI50 (PC-3): 19.8 µM; GI50 (DU-145): 7.21 µM; GI50 (MCF7 [1]): 2.38 µM; GI50 (MDA-MB-231): 5.22 µM; GI50 [2]: 2.89 µM; GI50 [3]: 3.27 µM; GI50 (T47D): 2.59 µM; GI50 (MDA-MB-468): 11.9 µM; GI50 [4]: 6.05 µM; GI50 (Malme-3M): 1.56 µM; GI50 (M14): 9.8 µM; GI50 (MDA-MB-435): 5.76 µM; GI50 (SK-MEL-2): 4.95 µM; GI50 (SK-MEL-28): 7.1 µM; GI50 (SK-MEL-5): 2.72 µM; GI50 [5]: 5.58 µM; GI50 [6]: 5.85 µM; inhibition (MCF7 [7]): Active; Activity (MCF7 [8]): 85.55%; Activity (MCF7 [9]): 11.65%; Activity (MCF7 [10]): 2.8%; GI50 (CCRF-CEM): 18.8 µM; GI50 (HL-60(TB)): 34 µM; GI50 (K562): 13.1 µM; GI50 [11]: 32.9 µM; GI50 (SR): 3.71 µM; GI50 (RPMI-8226): 7.5 µM; GI50 (A549): 7.96 µM; GI50 [12]: 7.42 µM; GI50 (HOP-62): 3.62 µM; GI50 [13]: 2.36 µM; GI50 (NCI-H226): 24.1 µM; GI50 (NCI-H23): 3.41 µM; GI50 (NCI-H322M): 4.63 µM; GI50 (NCI-H460): 4.09 µM; GI50 (NCI-H522): 3.12 µM; GI50 (COLO 205): 3.5 µM; GI50 [14]: 8.27 µM; GI50 (HCT-116): 2.26 µM; GI50 [15]: 4.85 µM; GI50 (HT-29): 4.8 µM; GI50 (KM12): 4.99 µM; GI50 (SW-620): 4.16 µM; GI50 (SF-268): 4 µM; GI50 [16]: 15.2 µM; GI50 [17]: 2.39 µM; GI50 (SNB-19): 25.2 µM; GI50 (SNB-75): 5.49 µM; GI50 (U-251): 3 µM; GI50 (IGROV-1): 8.86 µM; GI50 [18]: 2.88 µM; GI50 [19]: 5.72 µM; GI50 [20]: 9.33 µM; GI50 [21]: 3.92 µM; GI50 [22]: 3.36 µM; GI50 (SK-OV-3): 14.8 µM; GI50 (786-0): 3.9 µM; GI50 (A498): 10.4 µM; GI50 (ACHN): 3.26 µM; GI50 (CAKI-1): 8.33 µM; GI50 [23]: 2.94 µM; GI50 (SN12C): 11.4 µM; GI50 (TK-10): 4.16 µM; GI50 [24]: 1.31 µM
